One experiment concerns the target CDK9 (Homo sapiens (Human), UniProt P50750). Put plainly: LANCE Ultra kinase assay, CDK9. It counts as biochemical. How it is done:
(§1) The inhibitory activities of the test compound on the kinases were evaluated by LANCE Ultra assay, which was used for detecting ATP-dependent phosphorylation of a ULight-4E-BP1 (Thr37/Thr46) substrate peptide (150 nM). In short, enzymatic reactions were performed in a reaction buffer (25 mM HEPES (pH 7.5), 10 mM MgCl2, 0.01% BSA, 0.01% Tween 20, and 1 mM DTT). The assay was performed in a 384-well plate (6 μL). A final concentration of an ATP substrate was […], and a final concentration of the ULight-4E-BP1 (Thr37/Thr46) substrate peptide was 150 nM. A final concentration of CDK9, CDK12, or CDK13 was 0.3, 30, or 30 nM, respectively. Pre-incubation of the compound and the enzyme was performed at room temperature for 60 min. The reaction was stopped by adding 10 mM EDTA and 0.15 nM Eu-labeled anti-phospho-eIF4E-binding protein 1 (Thr37/46) antibody in LANCE detection buffer after incubation at room temperature for 15, 60, or 90 min. Time-resolved fluorescence (excitation, 320 nm; emission donor, 615 nm; emission acceptor, 665 nm) was monitored using an EnVision spectrophotometer (PerkinElmer). Readings were computed as (acceptor count/donor count)×1000. IC50 values were derived by fitting a sigmoidal dose-response curve to a plot of assay readouts of inhibitor concentrations. All fittings were computed using program Prism 5.03 (GraphPad Software, San Diego, CA).
(In general: In TR-FRET formats the signal depends on donor and acceptor labels being close together.)

For the next experiment, the target named is CDK12 (Homo sapiens (Human), UniProt Q9NYV4). Put plainly: LANCE Ultra kinase assay, CDK12. The experiment is classed as biochemical. How it is done:
as §1

The subject of another experiment is VCaP cell. Put plainly: VCaP cell proliferation, CellTiter-Glo Luminescent Cell Viability Assay. It counts as cell-based. To be noted: VCaP cells. How it is done:
The VCaP cell proliferation activity was determined by CellTiter-Glo Luminescent Cell Viability Assay (Promega, Madison, WI). The cells were inoculated on a 96-well plate in their respective culture mediums, and incubated in an incubator with 5% CO2 at 37° C. After incubation overnight, serial dilutions of the compound were prepared, and added into the 96-well plate. A CellTiter-Glo reagent (volume equal to the volume of the cell culture medium present in each well) was added (e.g., 100 μL of the reagent was added into 100 μL of the cell culture medium in the 96-well plate). The contents were mixed on an orbital shaker for 2 min to induce the cell lysis. The cells in the 96-well plate were incubated at room temperature for 10 min, to stabilize the luminescent signal. Luminescence was recorded: the luminescent signal for each well was acquired using an Infinite M1000 Pro plate reader (Tecan, Zurich, Switzerland), and the data was analyzed using GraphPad Prism software (GraphPad Software Inc, La Jolla, CA).

For another experiment, the target named is CDK13 (Homo sapiens (Human), UniProt Q14004). The experiment is described as follows: LANCE Ultra kinase assay, CDK13. It counts as biochemical. The protocol:
as §1

Setting [1] is: 30 nM enzyme, 60 min pre-incubation, ULight-4E-BP1 150 nM, read-out: CDK12 IC50.
[2] abbreviates: 30 nM enzyme, 60 min pre-incubation, ULight-4E-BP1 150 nM, read-out: CDK13 IC50.

Molecules are shown by their SMILES. Read-outs that look alike come from different tables or passages of the source.

Chain of CDK12 (Q9NYV4 whole entry): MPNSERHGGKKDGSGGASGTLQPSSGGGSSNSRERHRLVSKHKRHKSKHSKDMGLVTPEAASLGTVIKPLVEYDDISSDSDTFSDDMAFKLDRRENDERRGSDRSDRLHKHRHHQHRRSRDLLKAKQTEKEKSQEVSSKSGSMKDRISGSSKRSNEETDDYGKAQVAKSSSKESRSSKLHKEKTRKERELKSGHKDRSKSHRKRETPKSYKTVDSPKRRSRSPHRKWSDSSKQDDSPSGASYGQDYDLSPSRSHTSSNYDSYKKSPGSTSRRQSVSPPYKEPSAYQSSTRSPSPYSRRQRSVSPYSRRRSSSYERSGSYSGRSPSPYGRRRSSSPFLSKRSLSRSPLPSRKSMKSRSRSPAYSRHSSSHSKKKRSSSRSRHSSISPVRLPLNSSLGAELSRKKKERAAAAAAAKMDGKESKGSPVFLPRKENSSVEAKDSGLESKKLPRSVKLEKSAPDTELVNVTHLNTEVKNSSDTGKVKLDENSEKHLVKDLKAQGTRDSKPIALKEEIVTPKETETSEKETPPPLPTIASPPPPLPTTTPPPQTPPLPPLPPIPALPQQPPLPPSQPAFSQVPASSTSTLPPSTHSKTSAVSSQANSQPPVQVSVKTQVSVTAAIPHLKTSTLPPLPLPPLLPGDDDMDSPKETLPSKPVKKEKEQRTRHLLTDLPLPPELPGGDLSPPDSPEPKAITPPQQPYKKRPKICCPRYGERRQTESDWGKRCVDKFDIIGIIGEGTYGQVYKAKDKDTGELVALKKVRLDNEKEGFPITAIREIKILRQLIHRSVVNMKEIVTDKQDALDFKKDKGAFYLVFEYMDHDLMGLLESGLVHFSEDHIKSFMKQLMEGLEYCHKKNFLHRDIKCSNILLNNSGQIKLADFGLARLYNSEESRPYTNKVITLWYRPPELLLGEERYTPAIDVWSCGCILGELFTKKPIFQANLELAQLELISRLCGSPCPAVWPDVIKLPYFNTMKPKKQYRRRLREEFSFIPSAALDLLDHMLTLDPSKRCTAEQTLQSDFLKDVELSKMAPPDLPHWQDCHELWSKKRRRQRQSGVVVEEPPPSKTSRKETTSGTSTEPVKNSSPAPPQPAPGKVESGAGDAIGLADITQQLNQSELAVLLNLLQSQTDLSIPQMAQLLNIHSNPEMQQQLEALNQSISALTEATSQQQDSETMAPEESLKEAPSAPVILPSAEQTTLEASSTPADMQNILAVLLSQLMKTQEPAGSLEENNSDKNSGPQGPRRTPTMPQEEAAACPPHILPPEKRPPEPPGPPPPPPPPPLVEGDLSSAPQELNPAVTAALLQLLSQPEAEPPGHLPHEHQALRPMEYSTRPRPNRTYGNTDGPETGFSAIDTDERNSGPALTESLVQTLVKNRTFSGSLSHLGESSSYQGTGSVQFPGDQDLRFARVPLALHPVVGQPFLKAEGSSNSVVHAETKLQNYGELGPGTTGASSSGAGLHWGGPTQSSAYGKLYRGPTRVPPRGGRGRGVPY
Chain of CDK12 (O75909 whole entry partner): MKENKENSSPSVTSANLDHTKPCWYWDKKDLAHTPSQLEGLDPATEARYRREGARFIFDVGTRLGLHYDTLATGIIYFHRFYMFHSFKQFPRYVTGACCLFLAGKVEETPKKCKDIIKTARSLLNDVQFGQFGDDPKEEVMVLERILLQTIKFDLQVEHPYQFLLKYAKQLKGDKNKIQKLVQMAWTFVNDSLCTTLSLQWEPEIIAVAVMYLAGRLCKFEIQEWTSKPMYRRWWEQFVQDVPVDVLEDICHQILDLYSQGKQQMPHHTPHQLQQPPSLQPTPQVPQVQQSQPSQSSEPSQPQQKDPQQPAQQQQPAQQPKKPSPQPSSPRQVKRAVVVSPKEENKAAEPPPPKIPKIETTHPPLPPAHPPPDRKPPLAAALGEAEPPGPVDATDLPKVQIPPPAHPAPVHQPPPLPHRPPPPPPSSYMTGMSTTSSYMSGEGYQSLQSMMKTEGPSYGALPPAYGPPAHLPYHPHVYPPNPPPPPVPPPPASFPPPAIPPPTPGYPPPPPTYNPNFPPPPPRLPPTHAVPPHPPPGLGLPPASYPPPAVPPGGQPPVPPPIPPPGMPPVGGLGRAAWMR
Chain of CDK13 (Q14004 whole entry, looked up): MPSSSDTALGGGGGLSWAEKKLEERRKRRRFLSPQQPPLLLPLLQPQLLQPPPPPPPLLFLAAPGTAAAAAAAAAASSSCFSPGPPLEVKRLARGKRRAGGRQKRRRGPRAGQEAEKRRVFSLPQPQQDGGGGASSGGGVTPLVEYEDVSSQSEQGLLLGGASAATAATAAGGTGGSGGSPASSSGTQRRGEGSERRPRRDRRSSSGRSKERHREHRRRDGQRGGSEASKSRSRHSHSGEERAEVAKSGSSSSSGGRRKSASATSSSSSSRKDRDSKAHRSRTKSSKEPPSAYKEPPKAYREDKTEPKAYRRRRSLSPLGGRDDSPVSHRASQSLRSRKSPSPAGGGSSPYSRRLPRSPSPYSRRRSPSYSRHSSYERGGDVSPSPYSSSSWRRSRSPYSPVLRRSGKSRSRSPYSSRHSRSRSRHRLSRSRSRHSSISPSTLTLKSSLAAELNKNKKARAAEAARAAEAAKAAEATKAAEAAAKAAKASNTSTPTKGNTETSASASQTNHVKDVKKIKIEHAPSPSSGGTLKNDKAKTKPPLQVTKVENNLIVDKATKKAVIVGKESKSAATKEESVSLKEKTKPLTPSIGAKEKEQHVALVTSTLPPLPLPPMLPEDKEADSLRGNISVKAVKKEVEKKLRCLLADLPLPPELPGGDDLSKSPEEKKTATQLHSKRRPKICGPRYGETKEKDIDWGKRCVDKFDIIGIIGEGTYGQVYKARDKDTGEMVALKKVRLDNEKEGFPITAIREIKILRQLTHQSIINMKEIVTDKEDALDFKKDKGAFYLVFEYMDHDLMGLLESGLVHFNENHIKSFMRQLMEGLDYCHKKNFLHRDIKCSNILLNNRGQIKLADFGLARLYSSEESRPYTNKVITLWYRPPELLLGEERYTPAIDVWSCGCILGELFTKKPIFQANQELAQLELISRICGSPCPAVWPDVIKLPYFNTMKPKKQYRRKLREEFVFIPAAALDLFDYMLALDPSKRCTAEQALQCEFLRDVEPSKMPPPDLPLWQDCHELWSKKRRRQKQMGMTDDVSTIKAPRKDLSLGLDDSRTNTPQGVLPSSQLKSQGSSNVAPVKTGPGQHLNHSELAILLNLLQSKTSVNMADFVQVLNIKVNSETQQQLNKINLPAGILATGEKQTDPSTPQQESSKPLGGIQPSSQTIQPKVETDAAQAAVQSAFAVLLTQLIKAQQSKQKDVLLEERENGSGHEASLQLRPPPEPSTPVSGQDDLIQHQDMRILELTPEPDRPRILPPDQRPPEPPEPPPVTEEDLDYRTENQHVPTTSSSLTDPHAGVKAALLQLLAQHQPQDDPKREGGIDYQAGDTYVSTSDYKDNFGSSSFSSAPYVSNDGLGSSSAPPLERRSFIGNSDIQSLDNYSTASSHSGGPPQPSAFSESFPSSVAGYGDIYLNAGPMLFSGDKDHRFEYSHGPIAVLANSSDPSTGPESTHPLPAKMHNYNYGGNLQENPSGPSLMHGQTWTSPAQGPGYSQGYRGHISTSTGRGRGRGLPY
Chain of CDK13 (O75909 whole entry partner, looked up): as the sequence (O75909 whole entry partner) above
Chain of CDK9 (P50750 whole entry, looked up, species assumed): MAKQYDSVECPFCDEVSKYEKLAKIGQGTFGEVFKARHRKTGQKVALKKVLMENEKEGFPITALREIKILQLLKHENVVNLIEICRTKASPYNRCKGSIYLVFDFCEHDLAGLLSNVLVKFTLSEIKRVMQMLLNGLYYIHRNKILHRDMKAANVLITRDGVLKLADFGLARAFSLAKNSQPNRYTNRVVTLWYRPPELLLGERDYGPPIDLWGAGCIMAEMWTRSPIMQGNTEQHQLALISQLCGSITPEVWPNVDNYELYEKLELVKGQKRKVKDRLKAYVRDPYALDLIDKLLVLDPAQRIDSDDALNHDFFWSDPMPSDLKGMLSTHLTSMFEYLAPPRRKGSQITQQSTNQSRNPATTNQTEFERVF
Chain of CDK9 (O60563 whole entry partner, looked up, species assumed): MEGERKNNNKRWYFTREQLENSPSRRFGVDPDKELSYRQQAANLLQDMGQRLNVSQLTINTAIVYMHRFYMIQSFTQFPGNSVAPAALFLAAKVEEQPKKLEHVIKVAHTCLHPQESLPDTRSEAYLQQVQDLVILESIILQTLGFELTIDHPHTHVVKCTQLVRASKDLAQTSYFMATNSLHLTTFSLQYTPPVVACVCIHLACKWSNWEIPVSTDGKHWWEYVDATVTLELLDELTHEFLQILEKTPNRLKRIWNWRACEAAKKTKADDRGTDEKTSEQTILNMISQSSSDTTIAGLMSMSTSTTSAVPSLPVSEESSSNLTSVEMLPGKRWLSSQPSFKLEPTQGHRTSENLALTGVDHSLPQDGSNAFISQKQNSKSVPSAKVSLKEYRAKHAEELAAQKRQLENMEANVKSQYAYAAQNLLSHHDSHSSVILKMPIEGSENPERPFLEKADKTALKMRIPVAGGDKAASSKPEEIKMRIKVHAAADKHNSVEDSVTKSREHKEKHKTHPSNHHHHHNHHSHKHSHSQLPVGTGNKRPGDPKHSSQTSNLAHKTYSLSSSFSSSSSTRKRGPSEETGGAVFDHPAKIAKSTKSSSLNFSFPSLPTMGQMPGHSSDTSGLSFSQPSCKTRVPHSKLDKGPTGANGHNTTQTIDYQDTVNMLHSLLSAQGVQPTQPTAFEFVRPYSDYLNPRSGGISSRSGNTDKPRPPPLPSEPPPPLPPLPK

For orientation: IC50 means the concentration that gives 50% inhibition. Take `C=CC(=O)Nc1cc(N(C(=O)NCc2ccccc2)[C@H]2CC[C@H](Nc3ccc(C#N)cn3)CC2)ccc1N1CCC(N(C)C)CC1` [YJZ5118, N-(5-(3-benzyl-1-((1r,4r)-4-((5-cyanopyridin-2-yl)amino)cyclohexyl)ureido)-2-(4-(dimethylamino)piperidin-1-yl)phenyl)acrylamide]: the 50% inhibitory concentration (IC50) against CDK9 (0.3 nM enzyme, 60 min pre-incubation, ULight-4E-BP1 150 nM) is greater than 500 nM; at CDK12, 15 to 50 nM; with VCaP cell (Homo sapiens), less than 15 nM; on CDK13 it was 15 to 50 nM. For the same compound, the “selectivity for CDK9 kinase” value at CDK9 (CDK12/13 versus CDK9, in words) is given as “good selectivity”. Moreover, the “inhibitory activities on CDK12/13 kinase (CDK12)” value at CDK12 (in words) is given as “strong”. Further, on CDK13 (in words), the “inhibitory activities on CDK12/13 kinase (CDK13)” value is listed as “strong”.

As for `C=CC(=O)Nc1cc(N(C(=O)NCc2ccccc2)[C@H]2CC[C@H](Nc3ccc(C#N)cn3)CC2)ccc1N1CCN(C2COC2)CC1` [YJZ6028, N-(5-(3-benzyl-1-((1r,4r)-4-((5-cyanopyridin-2-yl)amino)cyclohexyl)ureido)-2-(4-(oxetan-3-yl)piperazin-1-yl)phenyl)acrylamide], the half-inhibitory concentration (IC50) lay within 50 to 500 nM on CDK12 (setting [1]), 15 to 50 nM in the experiment with VCaP cell (Homo sapiens) and 50 to 500 nM on CDK13 (setting [2]).

`C=CC(=O)Nc1cc(N(C(=O)NCc2ccccc2)[C@H]2CC[C@H](Nc3ccc(C#N)cn3)CC2)ccc1N1CC(N(C)C)C1` [YJZ6077, N-(5-(3-benzyl-1-((1r,4r)-4-((5-cyanopyridin-2-yl)amino)cyclohexyl)ureido)-2-(3-(dimethylamino)azetidin-1-yl)phenyl)acrylamide]: the IC50 on CDK12 (setting [1]), with VCaP cell (Homo sapiens) and on CDK13 (setting [2]) was 50 to 500 nM in each case.

For `C=CC(=O)Nc1cc(N(C(=O)NCc2ccccc2)[C@H]2CC[C@H](Nc3ccc(C#N)cn3)CC2)ccc1N1CCC(N(C)C)C1` (stereo partly shown) [YJZ6082], the figures for the IC50 on CDK12 (setting [1]), in the experiment with VCaP cell (Homo sapiens) and on CDK13 (setting [2]) were greater than 500 nM, 50 to 500 nM and 50 to 500 nM, respectively.

`C=CC(=O)Nc1cc(N(C(=O)NCc2ccccc2)[C@H]2CC[C@H](Nc3ccc(C#N)cn3)CC2)ccc1N1CCN(C)[C@@H](C)C1` [YJZ6093]: the concentration for half-maximal inhibition (IC50) on CDK12 (setting [1]) is 15 to 50 nM; with VCaP cell (Homo sapiens) it was less than 15 nM; on CDK13 (setting [2]), 15 to 50 nM.

As to `C=CC(=O)Nc1cc(N(C(=O)NCc2ccccc2)[C@H]2CC[C@H](Nc3ccc(C#N)cn3)CC2)ccc1N1C[C@H]2C[C@@H]1CN2C` [YJZ6096, N-(5-(3-benzyl-1-((1r,4R)-4-((5-cyanopyridin-2-yl)amino)cyclohexyl)ureido)-2-((1R,4R)-5-methyl-2,5-diazabicyclo[2.2.1]heptan-2-yl)phenyl)acrylamide], the half-maximal inhibitory concentration (IC50) at CDK12 (setting [1]) lay in the range of 15 to 50 nM; in the experiment on VCaP cell (Homo sapiens), 50 to 500 nM; on CDK13 (setting [2]), 15 to 50 nM.

In the case of `C=CC(=O)Nc1cc(N(C(=O)NCc2ccccc2)[C@H]2CC[C@H](Nc3ccc(C#N)cn3)CC2)ccc1N1CCN[C@@H](C)C1` [YJZ8027], the IC50 was 15 to 50 nM at CDK12 (setting [1]), 15 to 50 nM with VCaP cell (Homo sapiens) and less than 15 nM on CDK13 (setting [2]).

Turning to `C=CC(=O)Nc1cc(N(C(=O)NCc2ccccc2)[C@H]2CC[C@H](Nc3ccc(C#N)cn3)CC2)cc(F)c1N1CCN(C)[C@@H](C)C1` [YJZ8070], the half-inhibitory concentration (IC50) on CDK12 (setting [1]) was 50 to 500 nM; with VCaP cell it was less than 15 nM; on CDK13 (setting [2]) it was 15 to 50 nM.

(Values after patent US20250100994A1, “CDK12/13 COVALENT INHIBITORS OR PHARMACEUTICAL COMPOSITION THEREOF, AND USES THEREOF” (The Regents of the University of Michigan, priority 2023, published 2025).)
